Source: doi:10.1101/2025.07.03.662948v1 (biorxiv, 2025)

T1: MtbCBS (Mycobacterium tuberculosis cystathionine β-synthase) (Mycobacterium tuberculosis, UniProt P9WP51)
T1 sequence (P9WP51 1-464): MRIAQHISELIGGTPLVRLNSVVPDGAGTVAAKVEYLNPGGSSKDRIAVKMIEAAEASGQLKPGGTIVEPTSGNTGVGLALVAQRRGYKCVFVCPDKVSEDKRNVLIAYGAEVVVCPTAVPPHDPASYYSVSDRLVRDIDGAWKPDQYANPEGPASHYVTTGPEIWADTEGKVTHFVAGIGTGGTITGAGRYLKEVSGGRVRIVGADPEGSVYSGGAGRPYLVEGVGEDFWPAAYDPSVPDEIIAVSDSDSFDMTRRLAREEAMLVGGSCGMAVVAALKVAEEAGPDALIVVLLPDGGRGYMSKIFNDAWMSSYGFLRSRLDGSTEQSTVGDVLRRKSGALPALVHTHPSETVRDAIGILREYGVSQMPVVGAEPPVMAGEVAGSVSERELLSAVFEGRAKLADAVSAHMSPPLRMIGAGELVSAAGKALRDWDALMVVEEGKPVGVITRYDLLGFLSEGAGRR


Experiments:
[1] = biological target: T1, MtbCBS (Mycobacterium tuberculosis cystathionine β-synthase); experiment: fluorescence of PLP aldimine; assay type: biochemical
purified protein = substrate: N[C@@H](CS)C(=O)O; experiment: purified protein; settings: pH 7.5; 25.0 °C

| Molecule | IC50 [1] [µM] | Km (purified protein) [mM] |
| --- | --- | --- |
| NOCC(=O)O [AOAA] | ~100 | – |
| MtbCBS (Mycobacterium tuberculosis cystathionine β-synthase) (Mycobacterium tuberculosis H37Rv) (protein) MRIAQHISELIGGTPLVRLNSVVPDGAGTVAAKVEYLNPGGSSKDRIAVKMIEAAEASGQLKPGGTIVEPTSGNTGVGLALVAQRRGYKCVFVCPDKVSEDKRNVLIAYGAEVVVCPTAVPPHDPASYYSVSDRLVRDIDGAWKPDQYANPEGPASHYVTTGPEIWADTEGKVTHFVAGIGTGGTITGAGRYLKEVSGGRVRIVGADPEGSVYSGGAGRPYLVEGVGEDFWPAAYDPSVPDEIIAVSDSDSFDMTRRLAREEAMLVGGSCGMAVVAALKVAEEAGPDALIVVLLPDGGRGYMSKIFNDAWMSSYGFLRSRLDGSTEQSTVGDVLRRKSGALPALVHTHPSETVRDAIGILREYGVSQMPVVGAEPPVMAGEVAGSVSERELLSAVFEGRAKLADAVSAHMSPPLRMIGAGELVSAAGKALRDWDALMVVEEGKPVGVITRYDLLGFLSEGAGRR | – | 15.47 |
